Measurements published in patent publication US20230391868A1, “COMPOSITIONS FOR AND METHODS OF TREATING CANCER” (The George Washington University, priority 2022, published 2023).

Tests used:
[1] = system: SM1 melanoma tumors; experiment: SM1 melanoma tumor growth in vivo; design: species or system mouse; settings: SM1-bearing C57/Bl6 mice, NextA 20 mg/kg intraperitoneally, anti-CD47 100 μg intratumorally, every other day, vs vehicle control
Method: Animal experiments were performed in accordance with protocol A354 approved by the Institutional Care and Use Committee (IACUC) at The George Washington University. Female C57BL/6 mice (4-6 weeks old) were purchased from Charles River Laboratories (Wilmington, Massachusetts, USA). Mice were injected subcutaneously in their right flank with 10^6 in vivo passaged SM1 melanoma cells suspended in 100 μL of PBS (Corning, 21-040-CV) at day 0. Cages were randomly assigned to different treatment groups, and mice were treated intraperitoneally with 100 μL of vehicle control or NextA at 20 mg/kg every other day when tumors became palpable, which was a week after tumor implantation.
Six days after the first NextA treatment, mice were also treated intratumorally with 100 μg of αCD47 every two days (clone miap301, BE0270, BioXCell, Lebanon, NH, USA) until the end of the study. Tumor measurements were taken every other day using caliper measurements and calculated using the formula L×W^2/2. All animals were routinely monitored for early signs of toxicity. […]
First, C57/Bl6 mice were inoculated with SM1 melanoma cells (n=15 mice per group). […] The concentrations of NextA and anti-CD47 were determined by performing drug and antibody titrations. Tumor growth was monitored every other day from when the tumors became palpable until the experimental endpoint.

[2] = system: mouse SIRPα promoter; experiment: SIRPα-luc reporter luciferase assay in A31A7 macrophages; format: cell-based; settings: 10 μM of NextA; untreated transfected cells 32.2-fold (FIG. 2B)
Method: The mouse CD47 or SIRPα promoters were cloned into a promoterless pGL4.20[luc2/puro] vector using Genentech's cloning services (San Francisco, CA, USA). Vectors were transfected into SM1 and B16 melanoma cells using Lipofectamine 3000 (L3000008, ThermoFisher) and transfected cells were selected using puromycin. A31A7 macrophages were transiently transfected using jetOPTIMUS DNA transfection reagent (Polyplus, NY, USA). Luminescence was measured using the Luciferase Assay System (E4550, Promega) in a SpectraMax i3× Multi-Mode Microplate Reader (Molecular Devices).
To investigate whether HDAC6 controlled SIRPα expression at the transcriptional level, the mouse SIRPα promoter was cloned into a promoterless pGL4.20 [luc2/puro] vector to create a SIRPα-Luc reporter plasmid. e Nex, A31A7 macrophages were transiently transfected in the absence or presence of 10 μM of NextA and luminescence was evaluated. A31A7 cells were successfully transfected with the SIRPα-luciferase reporter vector as evidenced by a 32.2-fold increase in relative luminescence units (RLU) compared to untransfected cells (FIG. 2B).

SMILES: CCCCN(Cc1ccc(C(=O)NO)cc1)C(=O)Nc1ccccc1 [NextA, Nexturastat A]
- tumor growth [1]: moderately decreased tumor growth
- tumor growth ([1]; listed as Nexturastat A): enhanced the antitumor efficacy of anti-CD47
- increase in relative luminescence units (RLU) compared to untransfected cells [2]: 7.7 fold
